{
  "source": "patent US5366980A",
  "about": "“Use of dextromethorphan and an oxidase inhibitor to treat dermatitis” (priority 1993, dated 1994)",
  "key": {"[1]": {"tested_on": "neuronal calcium channels", "conditions": "reportedly, Carpenter et al 1988, cited from earlier work"}, "[2]": {"tested_on": "N-methyl-D-aspartate (NMDA) receptors", "conditions": "reportedly; cited from earlier work"}, "[3]": {"assay": "Plasma concentration of DM 10-12 hours after oral dosing, without and with quinidine (Examples 2 and 3)", "assay_type": "in vivo, human", "conditions": "10-12 hours, one value per patient", "method": "Plasma Concentrations of DM\nFive patients were orally administered 120 mg of DM, with no co-administration of quinidine. Between 10 and 12 hours later, blood was sampled, blood plasma was isolated by centrifugation, and the plasma was analyzed to determine the DM concentration using the thebaine/HPLC method.\nDuring a different week, the same patients were orally administered 60 mg of DM (half the control dosage) and 150 mg of quinidine. Between 10 and 12 hours later, blood was sampled and the plasma was analyzed for DM using thebaine/HPLC.\nAdditional studies were undertaken using a range of dosages of DM to establish a dose-response curve that correlates the quantity of DM orally administered to a patient with blood plasma concentrations 10 to 12 hours later (determined as described in Example 2). All patients received 150 mg of quinidine daily. The results of those studies are shown in graphical form in FIG. 2, with mean values shown as open squares and standard deviation ranges shown by vertical bars. The ascending line through the median values is a linear approximation; a curve based on more extensive data would probably show a horizontal asymptote."}, "ALS patients [4]": {"tested_on": "ALS patients", "conditions": "DM up to about 300 mg/day or higher; quinidine in prolonged QT interval; cited from earlier work"}, "ALS": {"tested_on": "ALS", "assay": "Effect on progress of ALS", "assay_type": "in vivo, human", "conditions": "loss of strength, slurring of speech, other muscular symptoms", "text": "As mentioned above, DM is being studied as a possible treatment for neurodegenerative diseases such as Parkinson's disease, Alzheimer's disease, and ALS. Accordingly, the Applicant, a neurologist who specializes in working with ALS patients, undertook a study of DM to determine whether it might be able to retard the progress of ALS.\nHowever, during the course of that study, other important findings emerged, as discussed below."}, "ALS patients [5]": {"tested_on": "ALS patients", "assay": "Tolerance and side effects in ALS patients and control subjects", "assay_type": "in vivo, human", "conditions": "ALS patients and controls; drug(s) as labelled", "text": "(§1) All patients who became involved in the study initially received DM and/or quinidine alone, to ensure that these drugs would not adversely affect them. The drugs were coadministered only after a tolerance and/or dosage range for one drug had been established for a patient.\nHowever, quinidine is not pharmaceutically acceptable by all patients."}, "dermatitis": {"tested_on": "dermatitis", "assay": "Suppression of dermatitis (lichen planus; severe intermittent dermatitis) in patients", "assay_type": "in vivo, human", "conditions": "patients treated with DM alone", "text": "Suppression of Dermatitis\nDuring an initial examination, the Applicant discovered that patient two, a Caucasion person who was suffering from ALS, suffered from a severe dermatologic condition involving lesions which appear in relatively small purplish patches (\"polygonal papules\"). Their condition had recently been diagnosed as lichen planus. The etiology is unknown, although a variety of drugs reportedly can aggravate this condition. The patient reported that the lesions were severely itchy, and they had been suffering from it for roughly ten years. They had been prescribed a number of drugs (including various steroids such as prednisone) in an effort to control the itching; the most recent prescription was \"Doxepin,\" a tricyclic antidepressant. None of those agents offered much relief.\nThe patient began an initial treatment of quinidine alone (150 mg/day) for a week.\nThe specialist carried out a preliminary test involving DM and quinidine on a person who suffered from severe but intermittent dermatitis."}, "emotional lability": {"tested_on": "emotional lability", "assay": "Suppression of emotional lability in ALS patients", "assay_type": "in vivo, human", "text": "Emotional lability is a complex problem in which patients suffering from neurological damage (typically due to a stroke or head injury or a neurologic disease such as ALS or Alzheimer's disease) become unable to control spasmodic emotional outbursts such as explosive laughing or uncontrollable weeping. This discovery involving emotional lability is discussed in U.S. Pat. No. 5,206,248, which was also invented by the Applicant; the contents of that patent are incorporated by reference.\nas §1"}, "[6]": {"conditions": "most people; cited from earlier work"}, "debrisoquin hydroxylase [7]": {"tested_on": "debrisoquin hydroxylase", "assay": "Urinary DM/DR ratio after oral dextromethorphan without and with quinidine (Example 1)", "assay_type": "in vivo, human", "conditions": "ALS patients", "method": "Since the research that led to this invention was done by a neurologist who was initially interested in finding out whether DM might be able to retard the progress of ALS, the initial studies were done on patients suffering from ALS, most of whom are adults more than 50 years old.\nSix patients suffering from ALS were administered orally a single 60 mg dextromethorphan dose. Several hours later, a urine sample was collected, and the urine concentrations of dextromethorphan (DM) and dextrorphan (DR) were measured as described below to determine a DM/DR ratio. […] In a different week, 60 mg of DM and 150 mg of quinidine were orally administered to the same patients, and urinary DM and DR levels and DM/DR ratios were determined again.\nDM and DR urinary levels without quinidine were determined by adding […] of thebaine as an internal standard to 1 mL of urine. To this was added 2000 units of beta-glucuronidase in 1 mL of acetate buffer (0.1M, pH 5.0). The mixture was incubated for 18 hours at 37° C. and then extracted by adding 1 mL of phosphate buffer (pH 12, 0.10M) and 7 mL of n-butanol/hexane (10:90 v/v). After mixing and centrifugation, the organic layer was transferred to a clean tube and acidified with 400 uL of 0.01 N HCL. 20 microliters (uL) of aqueous phase was injected into a high performance liquid chromatography (HPLC) system. The HPLC used a phenyl column equilibrated with a mobile phase of acetonitrile:water (51:49, v/v) containing 10 mM KHPO4, 10 mM hexane sulfonic acid, pH 4.0 (flow rate 1.2 mL/min). Detection of thebaine, dextromethorphan and dextrorphan was achieved by fluorescence (Kratos FS-980 Fluorometer) with an excitation wavelength of 228 nm and no emission cutoff filter.\nA gas chromatograph/mass spectroscopy (gc/ms) assay was employed for determining dextromethorphan and dextrorphan levels in the presence of quinidine. Briefly, 0.5 ml urine samples were spiked with 500 nanograms (ng) of dimethacrine. The urine pH was adjusted to 5.0 with 0.1M acetate buffer (usually about 1.0 ml), and beta-glucuronidase was added (2000 units/ml urine). […]"}, "sigma receptors": {"tested_on": "sigma receptors", "conditions": "reportedly; cited from earlier work"}, "debrisoquin hydroxylase [8]": {"tested_on": "debrisoquin hydroxylase", "assay": "Urinary DM/DR ratio with other antioxidants in specific patients (Example 5)", "conditions": "urine, HPLC; preliminary; one value per patient", "excerpt": "The second method involves sampling body fluids to compare the concentrations of DM and its primary metabolite, dextrorphan (DR). Although blood concentrations can be directly evaluated by drawing blood samples if desired, an easier and painless approach is to analyze urine samples. Blood or urine samples can be processed using methods such as high performance liquid chromatography (HPLC), as described in Example 5. […] The height of each peak, or the area under each peak, will indicate the quantity of each compound in the blood or urine sample. The heights of the DM and DR peaks are then divided, to determine the DM/DR ratio. The ratio which occurs after administration of a candidate antioxidant drug is compared to the DM/DR ratio in the same patient under control conditions (i.e., before administration of any antioxidant).\nPreliminary Analysis of Other Antioxidants\nTo further evaluate that possibility, the Applicant arranged for chemical analyses of urine samples, using HPLC, in the labs of an independent investigator."}},
  "note": "“And” between values parts separate entries of the source, which are not always exact repeats. Equal values may be shown once. Read-outs that look alike come from different tables or passages of the source.",
  "data": [
    {"smiles": "COc1ccc2c(c1)[C@@]13CCCC[C@H]1[C@@H](C2)N(C)CC3", "note": "[DM, (+)-3-methoxy-N-methylmorphinan]", "values": [
      {"measurement": "Activity at neuronal calcium channels", "setting": "[1]; listed as Dextromethorphan", "value": "suppress neural activity mediated by neuronal calcium channels"},
      {"measurement": "Activity at neuronal calcium channels", "setting": "[1]; listed as dextromethorphan", "value": "calcium channel antagonists"},
      {"measurement": "Activity at NMDA receptors", "setting": "[2]", "value": "NMDA antagonists"},
      {"measurement": "DM plasma level, with quinidine", "setting": "[3]; 60 mg DM once oral + quinidine 150 mg", "value": "33 ng/mL and 29.7 ng/mL and 29.0 ng/mL and 28.8 ng/mL and 45.6 ng/mL"},
      {"measurement": "DM plasma level, no quinidine", "setting": "[3]; 120 mg/day DM oral, quinidine dose 0", "value": "9.3 ng/mL and 16.5 ng/mL and 6.05 ng/mL"},
      {"measurement": "Adverse effects (general knowledge)", "setting": "ALS patients [4]", "value": "any adverse effects (such as dizziness or nausea) usually disappear quickly when the dosage is lowered"},
      {"measurement": "Slowing of progressive ALS symptoms", "setting": "ALS", "value": "not able to slow down the progressive loss of strength, slurring of speech, and other muscular symptoms"},
      {"measurement": "Adverse side effects", "setting": "ALS patients [5]", "value": "no ill effects"},
      {"measurement": "Therapeutic benefits (emotional lability and dermatitis)", "setting": "dermatitis", "value": "not detectable"},
      {"measurement": "Reduction of emotional lability symptoms", "setting": "emotional lability", "value": "not observed in any patients who received DM alone"},
      {"measurement": "Disappearance from the bloodstream", "setting": "[6]", "value": "disappears fairly rapidly from the bloodstream"},
      {"measurement": "Metabolism of DM in ALS patients vs healthy adults", "setting": "debrisoquin hydroxylase [7]", "value": "No difference in the metabolism"},
      {"measurement": "Activity at sigma receptors", "setting": "sigma receptors", "value": "sigma agonists"},
      {"measurement": "DM/DR ratio, no antioxidant", "setting": "debrisoquin hydroxylase [8]", "value": "0.02 and 0.00 and 0.06 and 0.03"}
    ]}
  ]
}
